Assay [1] relates to OCI-AML3 cells. The assay is described as follows: Dose-response curves in AML cell line (6-day culture assay in 384-well plates). It is filed as cell-based. Conditions: dose-response curves FIGS. 5H-J. Here is the method:
FIGS. 5A-5J show the results on experiments assessing the mode of action of Mubritinib for mediating tumor cell death. FIG. 5A: OCI-AML3 leukemic cells were either pre-incubated for 4 hours with 6 mM N-acetyl-cysteine (NAC), a reactive oxygen species (ROS) scavenger, or with vehicle (water) before being treated with 100 nM Mubritinib for 24 h or vehicle (DMSO). […] FIGS. 5C and 5D show the levels of reduced and oxidized levels of glutathione, respectively, in OCI-AML3 treated or not with Mubritinib, as detected by liquid chromatography-mass spectrometry (LC/MS). […] FIG. 5G is a graph depicting dose-response curves upon Mubritinib treatment (6-day culture assay in 384-well plates) of OCI-AML3 and OCI-AML5 cell lines. FIGS. 5H-J are graphs depicting dose-response curves following treatment of OCI-AML3 and OCI-AML5 cell lines with other ETC inhibitors, namely Oligomycin (inhibitor of complex V, FIG. 5H), Rotenone (inhibitor of complex I, FIG. 5I) and Deguelin (inhibitor of complex I, FIG. 5J).
OCI-AML3 cells were maintained in alpha-MEM, 20% FBS whereas breat tumor BT474 cells were maintained in DMEM 10% FBS.
(§1) Patient cells were seeded in 384-well plates at a density of 5,000 cells in 50 μL per well. In the initial screen, compounds were added to seeded cells in serial dilutions (10 dilutions, 1:3, starting from 10 μM or 20 μM), in duplicates. Cells treated with 0.1% DMSO without additional compound were used as negative controls. Viable cell counts per well were evaluated after 6 days of culture using the CellTiterGlo® assay (Promega®) according to the manufacturer's instruction. The percent of inhibition was calculated as follows: 100−(100×(mean luminescence(compound)/mean luminescence(DMSO)); where mean-luminescence(compound) corresponds to the average of luminescent signals obtained for the compound-treated cells, and mean-luminescence(DMSO) corresponds to the average of luminescent signals obtained for the control DMSO-treated cells.

Assay [2] concerns AML patient specimens. The assay is described as follows: Cell dose-response viability assay on AML patient specimens (primary and validation screen). It is filed as cell-based, human. To be noted: all 41 AML patient specimens tested, primary screen (FIG. 4D). As to the method: (§2) frozen AML mono-nucleated cells were thawed at 37° C. in Iscove's modified Dulbecco's medium (IMDM) containing 20% FBS and DNase I (100 μg/mL).
as §1

Assay [3] concerns HOX-med/low AML patient cells. Put plainly: Primary chemical screen of 60 compounds, cell dose-response viability assay (CellTiterGlo, 6 days). It is filed as cell-based, human. To be noted: read-out: MEAN EC50 HOX-med/low. Here is the method:
as §2
(§3) All powders were dissolved in DMSO and diluted in culture medium immediately before use. Final DMSO concentration in all conditions was 0.1%. The 60 compounds were purchased from various suppliers including Santa Cruz, Selleckchem, Calbiochem, AdooQ Bioscience, Cayman chemical and Synkinase.
(§4) Patient cells were seeded in 384-well plates at a density of 5,000 cells in 50 μL per well. In the initial screen, compounds were added to seeded cells in serial dilutions (10 dilutions, 1:3, starting from 10 μM or 20 μM), in duplicates. Cells treated with 0.1% DMSO without additional compound were used as negative controls. Viable cell counts per well were evaluated after 6 days of culture using the CellTiterGlo® assay (Promega®) according to the manufacturer's instruction.
(§5) Using high expression of HOXA9 and HOXA10 as a surrogate for the detection of HOX-network-high patient samples, the survival of HOX-high versus HOX-med/low specimens contacted with 60 inhibitors targeting receptor tyrosine kinases (RTK), members of the RAS and PI3K pathways, was assessed (FIG. 2A, Table 4).
Background: Cellular ATP, detected with luciferase, serves as a proxy for viable cell number.

In assay [4] the test system is HOX-high AML patient cells. The assay is described as above. It is filed as cell-based, human. To be noted: for EC50: read-out: MEAN EC50 HOX-high. Here is the method:
as §2, §3, §4, §5

Setting [5] is: Homo sapiens, 144 h, primary screen, mean over HOX-med/low patient specimens, 6 days culture, top concentration 10 μM or 20 μM.
The mark [6] stands for this setting: Homo sapiens, 144 h, primary screen, mean over HOX-high patient specimens, 6 days culture, top concentration 10 μM or 20 μM.
The mark [7] stands for this setting: ratio of mean EC50 HOX-high to mean EC50 HOX-med/low.
Where [8] appears, read: primary screen, mean over HOX-med/low patient specimens, 6 days culture, top concentration 10 μM or 20 μM.
Where [9] appears, read: primary screen, mean over HOX-high patient specimens, 6 days culture, top concentration 10 μM or 20 μM.

The results in this text go back to patent US20200188361A1, “USE OF MITOCHONDRIAL ACTIVITY INHIBITORS FOR THE TREATMENT OF POOR PROGNOSIS ACUTE MYELOID LEUKEMIA” (UNIVERSITE DE MONTREAL, priority 2016, published 2020).

Read-outs that look alike come from different tables or passages of the source.

Turning to `COc1cc2c(cc1OC)[C@@H]1C(=O)c3ccc4c(c3O[C@@H]1CO2)C=CC(C)(C)O4` [Deguelin], the “sensitivity of OCI-AML3 relative to OCI-AML5” value in assay [1] is listed as “more sensitive than OCI-AML5”.

`CS(=O)(=O)CCNCc1ccc(-c2ccc3ncnc(Nc4ccc(OCc5cccc(F)c5)c(Cl)c4)c3c2)o1` [Lapatinib ditosylate., Lapatinib ditosylate]: the “sensitivity of AML patient specimens” value in assay [2] is “resistant”. The EC50 in assay [3] (setting [5]) worked out at 9.92 µM; in assay [4] (setting [6]), 8.87 µM. The “FOLD CHANGE High/Med-low” value in assay [4] (setting [7]) was found to be 0.9.

Take `CC[C@H]1/C=C/C=C/C[C@@H](C)[C@H](O)[C@@](C)(O)C(=O)[C@@H](C)[C@H](O)[C@@H](C)C(=O)[C@@H](C)[C@H](O)[C@@H](C)/C=C/C(=O)O[C@@H]2[C@H](C)[C@H](CC1)O[C@]1(CC[C@H](C)[C@H](C[C@@H](C)O)O1)[C@H]2C` [Oligomycin]: the “sensitivity of OCI-AML3 relative to OCI-AML5” value in assay [1] is “more sensitive than OCI-AML5”.

As to `Cc1ccc(Nc2c(C(N)=O)cnc3cc(-c4ccc(S(C)(=O)=O)cc4)ccc23)cc1C` [cFMS Receptor Inhibitor III], the EC50 in assay [3] (setting [8]) is 7.97 µM; in assay [4] (setting [9]) it was 8.86 µM. In assay [4] (setting [7]), the “FOLD CHANGE High/Med-low” value came to 1.1.

Regarding `Cc1ccc(NC(=O)c2cccc(N(C)C)c2)cc1NC(=O)c1ccc(O)cc1` [ZM336372], the figures for the EC50 in assay [3] (setting [8]) and in assay [4] (setting [9]) were 8.88 µM and more than 10 µM, respectively. Further, the “FOLD CHANGE High/Med-low” value in assay [4] (setting [7]) stood at 1.1.

For `NC(=O)c1ccc(N(C(N)=O)c2c(F)cccc2F)nc1-c1ccc(F)cc1F` [VX702], the EC50 in assay [3] (setting [5]) was more than 10 µM; in assay [4] (setting [6]) it was 9.55 µM. Further, the “FOLD CHANGE High/Med-low” value in assay [4] (setting [7]) amounted to 1.0.

For `COc1ccc2cc(-c3nc(-c4ccc([S+](C)[O-])cc4)[nH]c3-c3ccncc3)ccc2c1` (stereo not drawn) [Tie2 Kinase Inhibitor], the EC50 in assay [3] (setting [8]) and in assay [4] (setting [9]) was more than 10 µM each time. Besides, the “FOLD CHANGE High/Med-low” value in assay [4] (setting [7]) came out at 1.0.

Take `Cn1cncc1[C@@](N)(c1ccc(Cl)cc1)c1ccc2c(c1)c(-c1cccc(Cl)c1)cc(=O)n2C` [Tipifarnib]: the EC50 in assay [3] (setting [5]) is 0.158 µM; in assay [4] (setting [6]), 0.109 µM. Moreover, in assay [4] (setting [7]), the “FOLD CHANGE High/Med-low” value was determined as 0.7.

On to `CCN(CC)CCCCNc1ncc2cc(-c3cc(OC)cc(OC)c3)c(NC(=O)NC(C)(C)C)nc2n1` [PD173074], for which the EC50 stood at 5.2 µM in assay [3] (setting [8]) and 4.95 µM in assay [4] (setting [9]). Besides, the “FOLD CHANGE High/Med-low” value in assay [4] (setting [7]) is listed as 1.0.

For the molecule `CC[C@H](Nc1ncnc2[nH]cnc12)c1nc2cccc(F)c2c(=O)n1-c1ccccc1` [GS1101 idelalisib CAL101, idelalisib], the EC50 in assay [3] (setting [5]) was found to be 5.67 µM; in assay [4] (setting [6]), 7.47 µM. Also, the “FOLD CHANGE High/Med-low” value in assay [4] (setting [7]) is recorded as 1.3.

For the molecule `CC(C)(C)c1cc(NC(=O)Nc2ccc(-c3cn4c(n3)sc3cc(OCCN5CCOCC5)ccc34)cc2)no1` [Quizartinib], the EC50 in assay [3] (setting [5]) was found to be 0.52 µM; in assay [4] (setting [6]), 0.23 µM. Besides, in assay [4] (setting [7]), the “FOLD CHANGE High/Med-low” value stood at 0.4.

For the molecule `COc1cccc(-c2cc(=O)c3ccccc3o2)c1N` [PD98059], the EC50 in assay [3] (setting [8]) is more than 10 µM. Further, the “FOLD CHANGE High/Med-low” value in assay [4] (setting [7]) came out at 1.0.

Turning to `C=C(C)[C@H]1Cc2c(ccc3c2O[C@@H]2COc4cc(OC)c(OC)cc4[C@@H]2C3=O)O1` [Rotenone], the “sensitivity of OCI-AML3 relative to OCI-AML5” value in assay [1] is recorded as “more sensitive than OCI-AML5”.

Regarding `N#Cc1ccc(C(=O)Nc2cc(N3CCCCC3)ccc2N2CCCCC2)o1` [cFMS Receptor Inhibitor IV], the EC50 in assay [3] (setting [8]) is 9.57 µM; in assay [4] (setting [9]), more than 10 µM. Besides, the “FOLD CHANGE High/Med-low” value in assay [4] (setting [7]) worked out at 1.0.

As for `N#CC(=C(/N)Sc1ccccc1N)/C(C#N)=C(\N)Sc1ccccc1N` [U0126], the EC50 is 4.11 µM in assay [3] (Homo sapiens, 144 h) and 4.48 µM in assay [4] (Homo sapiens, 144 h). In addition, in assay [4], the “FOLD CHANGE High/Med-low” value is listed as 1.1.

Consider `C#Cc1cccc(Nc2ncnc3cc(OCCOC)c(OCCOC)cc23)c1` [Erlotinib], for which the EC50 came out at 9.14 µM in assay [3] (setting [5]) and 8.66 µM in assay [4] (setting [6]). Moreover, the “FOLD CHANGE High/Med-low” value in assay [4] (setting [7]) is listed as 0.9.

Turning to `Nc1ncnc2c1c(-c1cccc(OCc3ccccc3)c1)cn2C1CC(CN2CCC2)C1` (stereo not drawn) [NVPAEW541], the EC50 in assay [3] (setting [8]) was determined as 1.77 µM; in assay [4] (setting [9]) it was 1.73 µM. In assay [4] (setting [7]), the “FOLD CHANGE High/Med-low” value was determined as 1.0.

On to `Cc1nc(NC(=O)N2CCC[C@H]2C(N)=O)sc1-c1ccnc(C(C)(C)C(F)(F)F)c1` [BYL719], for which the results for the EC50 in assay [3] (setting [5]) and in assay [4] (setting [6]) were 4.75 µM and 7.52 µM, respectively. In assay [4] (setting [7]), the “FOLD CHANGE High/Med-low” value came to 1.6.
